From patent US20140073631A1 (priority 2012, published 2014)
In brackets after ≈: the same amount, converted by molar mass. Like-named read-outs stand apart in the source and are kept apart here.

Key:
[1] = system: HIV-1 ROJO (low passage clinical strain); assay: PBMC assay, virus production by reverse transcriptase activity; format: cell-based
[2] = system: fresh human peripheral blood mononuclear cells
Burkholderia mallei = assay: microbe, parasite or virus in culture; format: cell-based
Bacillus anthracis = assay: microbe, parasite or virus in culture; format: cell-based; settings: Bacillus anthracis; read-out: MIC90
Francisella tularensis = assay: microbe, parasite or virus in culture; format: cell-based; settings: Francisella tularensis
[3] = system: Flu A H3N2 California/7/04; assay: Anti-influenza testing, visual and NR assays; format: cell-based, influenza A H3N2; settings: for activity by visual and NR assays: Flu A H3N2; for EC50: H3N2, MDCK
[4] = system: Flu A H1N1 New Caledonia/20/99; assay: Anti-influenza testing, visual and NR assays; format: cell-based, influenza A H1N1; settings: for activity by visual and NR assays: Flu A H1N1
MDCK = assay: Anti-influenza testing, IC50 in MDCK cell line (cell-inhibitory concentration used for SI); format: cell-based; settings: Canis lupus familiaris
Plasmodium falciparum = assay: Anti-malaria testing; format: cell-based

Cc1cn([C@H]2C[C@H](N=[N+]=[N-])[C@@H](CO)O2)c(=O)[nH]c1=O [AZT, reference compound]
RT ACTIVITY % VC ([1]; 0.0013 μM): 104.6% | RT ACTIVITY % VC ([1]; 0.013 μM): 77.3% | RT ACTIVITY % VC ([1]; 0.04 μM): 81.7% | RT ACTIVITY % VC ([1]; 0.13 μM): 32.3% | RT ACTIVITY % VC ([1]; 0.4 μM): 3.8% | RT ACTIVITY % VC ([1]; 1.3 μM): 8.8% | RT ACTIVITY % VC ([1]; 4 μM): 0.7% | IC50 ([1]; ROJO in PBMC, RT activity): 0.1 µM | CC50 [2]: > 4 µM | TOXICITY VALUES (XTT) % CC ([2]; 0.0013 μM): 90.1% | TOXICITY VALUES (XTT) % CC ([2]; 0.013 μM): 99.3% | TOXICITY VALUES (XTT) % CC ([2]; 0.04 μM): 92.1% | TOXICITY VALUES (XTT) % CC ([2]; 0.13 μM): 89.0% | TOXICITY VALUES (XTT) % CC ([2]; 0.4 μM): 98.8% | TOXICITY VALUES (XTT) % CC ([2]; 1.3 μM): 84.8% | TOXICITY VALUES (XTT) % CC ([2]; 4 μM): 86.2%

CC[C@H]1OC(=O)[C@H](C)[C@@H](O[C@H]2C[C@@](C)(OC)[C@@H](O)[C@H](C)O2)[C@H](C)[C@@H](O[C@@H]2O[C@H](C)C[C@H](N(C)C)[C@H]2O)[C@](C)(O)C[C@@H](C)CN(C)[C@H](C)[C@@H](O)[C@]1(C)O [Azithromycin, azithromycin, reference compound]
MIC Range (Burkholderia mallei): 0.0625 to 1 µg/mL | MIC50 (Burkholderia mallei; Burkholderia mallei): 0.5 µg/mL (≈ 0.668 µM) | MIC90 (Burkholderia mallei; Burkholderia mallei, read-out: MIC90): 1 µg/mL (≈ 1.34 µM)

N=C(NC(=N)N1CCSCC1)NC1C2CC3CCC1(NC(=N)NC(=N)N1CCSCC1)CC3C2 (centres unmarked) [BVS-20A (XII)]
MIC90 (Bacillus anthracis): ≤ 4 µg/mL | MIC90 (Francisella tularensis): < 4 µg/mL

O=C1C2C=CC=C([N+](=O)[O-])C2(C(=O)O)C(c2ccccc2)N1c1ccc(O)cc1 (centres unmarked) [BVS-45A (I)]
activity by visual and NR assays [3]: highly active | activity by visual and NR assays [4]: highly active

O=C1C2C=CC=C([N+](=O)[O-])C2(C(=O)O)C(c2ccccc2)N1c1ccc(O)cc1 (centres unmarked) [BVS-45]
IC50 (MDCK; Neutral Red assay, test with Flu A (H3N2) California/7/04, trial 1, read-out: IC50): 75 µg/mL (≈ 191 µM) | IC50 (MDCK; Visual assay, test with Flu A (H1N1) New Caledonia/20/99, trial 1): > 100 µg/mL | IC50 (MDCK; Visual assay, test with Flu A (H3N2) California/7/04, trial 1, read-out: IC50): > 100 µg/mL | IC50 (MDCK; Visual-CONF assay, test with Flu A (H1N1) New Caledonia/20/99, trial 2, read-out: IC50): > 100 µg/mL | IC50 (MDCK; Visual-CONF assay, test with Flu A (H3N2) California/7/04, trial 2, read-out: IC50): > 100 µg/mL | EC50 ([3]; Influenza A virus, Neutral Red assay, Flu A (H3N2) California/7/04, MDCK, vehicle DMSO, trial 1): 0.22 µg/mL (≈ 0.561 µM) | EC50 ([3]; Influenza A virus, Visual assay, Flu A (H3N2) California/7/04, MDCK, vehicle DMSO, trial 1): 0.056 µg/mL (≈ 0.143 µM) | EC50 ([3]; Influenza A virus, Visual-CONF assay, Flu A (H3N2) California/7/04, MDCK, vehicle DMSO, trial 2): 0.056 µg/mL (≈ 0.143 µM) | EC90 ([3]; Influenza A virus, Virus Yield assay, Flu A (H3N2) California/7/04, MDCK, vehicle DMSO, trial 2): 0.15 µg/mL (≈ 0.382 µM) | EC90 ([4]; Influenza A virus, Virus Yield assay, Flu A (H1N1) New Caledonia/20/99, MDCK, vehicle DMSO, trial 2): > 100 µg/mL | EC50 ([4]; Influenza A virus, Visual-CONF assay, Flu A (H1N1) New Caledonia/20/99, MDCK, vehicle DMSO, trial 2, read-out: EC50): 0.18 µg/mL (≈ 0.459 µM)

N#CNC(=N)NC1C2CC3CCC1(NC(=N)NC#N)CC3C2 (centres unmarked) [BVS-47A (XX)]
activity by visual and NR assays [3]: highly active | activity by visual and NR assays [4]: highly active | IC50 (Plasmodium falciparum; average of Test 1 and Test 2, read-out: Average IC50): > 10 µM | IC50 (Plasmodium falciparum; read-out: IC50 Test 1): > 10 µM | IC50 (Plasmodium falciparum; read-out: IC50 Test 2): > 10 µM

N#CNC(=N)NC1C2CC3CCC1(NC(=N)NC#N)CC3C2 (centres unmarked) [BVS-47]
IC50 (MDCK; Neutral Red assay, test with Flu A (H1N1) New Caledonia/20/99, trial 1): 70 µg/mL (≈ 233 µM) | EC50 ([4]; Influenza A virus, H1N1, MDCK): 0.25 µg/mL (≈ 0.832 µM)
